From US7615380B2, “Methods for modulating an immune response by modulating KRC activity” (President and Fellows of Harvard College, priority 2001, dated 2009)

How the values were obtained:
[1] = test system: IL-2 promoter; assay: IL-2 promoter, NFAT/AP-1 and NFAT luciferase reporters and IL-2 RT-PCR in Jurkat cells; assay type: cell-based, human
Experimental: FIG. 19(A) Stably transfected Jurkat T cell clones with vector (vec) or KRC (Jurkat-KRC) were stimulated with PMA (50 ng/mL) plus ionomycin (2 μM) for 6 hours. IL-2 mRNA abundance was determined by RT-PCR with tubulin as an internal control. FIG. 19(B) Jurkat cells were transiently transfected with an IL-2-Luciferase reporter along with Vector, KRC, or KRCtr (amino acids 204-1055) and, in all cases, a CMV-β-Gal reporter as an internal control (see text for details). 24 hours later, cells were stimulated with PMA plus ionomycin for 6 hours (upper panel) or Raji cells loaded with SEE for 8 hours (lower panel). Luciferase activity was determined and normalized for β-Galactosidase activity. FIG. 19(C) Jurkat cells were transiently transfected with NFAT/AP-1-, NFAT-, or AP-1-Luciferase reporters and treated as above.
For each transfection, 5×10^6 Jurkat cells were incubated with either IL2-Luc, NFAT/AP1-Luc or AP1-Luc reporter DNA together with pEF vector or pEF-KRC and CMV-βGAL as normalization control in 0.4 ml of RPMI and transfected by electroporation (260 v, 975 uF). Transfected cells were cultured at 37° C. for 20 h in RPMI 1640 medium (Gibco BRL) supplemented with 10% fetal bovine serum. Transfected cells were stimulated with PMA (50 ng/ml) and ionomycin (2 uM) for 6 hours prior to luciferase (Promega) and β-galactosidase assays (Galacton-PLUS substrate system, TROPIX, Inc).
Total RNA was isolated from T cells using TRIZOL™ reagent (Gibco/BRL). One (1) μg of total RNA was reverse transcribed using iScript cDNA Synthesis Kit (BioRad). PCR was performed with 2 uM of each primer (listed below) and 2.5 units of Platinum High fidelity enzyme (Invitrogen) according to the manufacturer.
Jurkat cells were transfected by electroporation and incubated for 20 h at 37° C. before stimulation for 8 h with the Raj i B cell line and Staphylococcal Enteroxin E (SEE) using Raji cells (1:1 with Jurkat cells) and SEE (200 ng/ml).

[2] = test system: IL-2; assay: IL-2 ELISA in retrovirally transduced primary CD4+ T cells; assay type: cell-based; conditions: anti CD3 or anti CD3 plus CD28, 24 hours
Experimental: In panel A Jurkat T cells were stably transfected with vector (pEF) or KRC expression plasmids. Stable clones were stimulated for 18 hours with PMA (50 ng/mL) plus ionomycin (2 μM) and IL-2 production was measured by ELISA. In panel B Primary CD4+ T cells were activated for 36 hours and subsequently transduced with control (RV), KRC, or KRC dominant negative (ZAS2) bicistronic GFP-expressing retroviruses. GFP-positive cells were sorted and stimulated for 24 hours with anti-CD3 or anti-CD3/anti-CD28 antibodies and IL-2 production was measured by ELISA. In panel C CD4 T cells from KRC +/+ or −/− mice were stimulated with anti-CD3 (1.0 μg/mL)/CD28 (0.5 μg/mL) antibodies for 24 hours and IL-2 production was measured by ELISA. In panel D CD4 T cells from KRC +/+ or −/− mice were stimulated with anti-CD3/CD28 antibodies for 72 hours in the presence of 200 U/mL human IL-2. IFNγ production was measured by ELISA.
Activated CD4^+T cells were transduced by RV, RV-KRC or RV-ZAS2 as described previously (Szabo, S. J., et al. (2000) Cell 100:655-669).
Therefore, the effects of KRC overexpression were studied in primary CD4+T cells as well as in the Jurkat line using a retroviral delivery system to express KRC in primary CD4+T cells. […] The ability of each population to produce IL-2 following subsequent activation by anti CD3 or anti CD3 plus CD28 was measured at 24 hours post-stimulation. […]

[3] = test system: TNFα; assay: Northern blot of endogenous TNFα in stably transfected RAW macrophage clones; assay type: cell-based; conditions: stable RAW transfectants, baseline
Experimental: Northern blotting analysis was performed using total RNA made from RAW cell lines transfected with an empty vector as a control and from a panel of 9 independent RAW clones stably transfected with full-length KRC (upper) and 3 RAW clones stably transfected with dominant negative KRC (lower). The blot was probed with a TNFα cDNA and with HPRT as loading control.
HEK293 cells ([…] per well) were seeded in 6 well plates, and 12 h later cells were transfected with EFECTENE™ (Qiagen) with 25 ng of a 2XNFκB-luciferase (Luc) reporter gene plasmid and 0.5 μg of the indicated TRAF and KRC expression vectors. Total amounts of transfected DNA were kept constant by supplementing with control empty expression vector plasmids as needed. Cell extracts were prepared 24 h after transfection, and reporter gene activity was determined via the luciferase assay system (PROMEGA). PRSV-βGal vector (50 ng) was used to normalize for transfection efficiency by measuring β galactosidase activity using the Galacton-PLUS substrate system (TROPIX, Inc.). Whenever indicated, the cells were treated for 4 hours with TNFα or IL-1 (10 ng/ml). To generate stable transfectants, EFECTENE™ mediated transfection of the RAW cell line was performed and clones were selected and maintained in complete medium supplemented with G418 (2 mg/ml). […]

KRC: full-length KRC zinc finger protein (SEQ ID NO:2) overexpressed from an expression vector
PMA/ionomycin induced activity of NFAT reporter ([1]; Jurkat cells): not further increased | IL-2 promoter-luciferase induction ([1]; Jurkat cells, PMA plus ionomycin): approximately 10 fold | transactivation of multimerized NFAT/AP-1 and AP-1 elements ([1]; Jurkat cells, PMA/ionomycin): enhanced PMA/ionomycin-induced transactivation | IL-2 promoter activity increase ([1]; Jurkat cells, Raji cells plus SEE): approximately 10 fold | IL-2 mRNA transcripts (RT PCR) ([1]; stable Jurkat clones, activated): higher levels of IL-2 transcripts | IL-2 production, increase versus GFP control retrovirus [2]: 3 to 4 fold | endogenous TNFα mRNA expression [3]: substantial decrease of baseline TNFα mRNA transcripts
